Data published in PubChem BioAssay AID328 (DTP/NCI, 2004).
Toxic doses and inconclusive results are not listed. The calls were made as follows: active = survival T/C of 150% or more; inactive = T/C below 125% in these data.

Test system: BDF1 mice, P388 leukemia ip, median survival T/C
Assay: NCI In Vivo Anticancer Drug Screen. Data for tumor model P388 Leukemia (intraperitoneal) in B6D2F1 (BDF1) mice
Settings: endpoint: median survival time, higher = longer survival
Summary of the method: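 Each value expresses how treatment altered survival: treated-mouse outcome over vehicle-mouse outcome, both groups bearing the transplanted tumour.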

[1] = dose: 50.0 mg/kg/injection, schedule: Q01DX009 (ip), vehicle: saline
[2] = dose: 100.0 mg/kg/injection, schedule: Q04DX003 (ip), vehicle: Klucel (hydroxypropylcellulose) (HPC)
[3] = dose: 200.0 mg/kg/injection, schedule: Q04DX003 (ip), vehicle: Klucel (hydroxypropylcellulose) (HPC)
[4] = dose: 400.0 mg/kg/injection, schedule: Q04DX003 (ip), vehicle: Klucel (hydroxypropylcellulose) (HPC)
[5] = dose: 25.0 mg/kg/injection, schedule: Q01DX009 (ip), vehicle: saline with Tween-80
[6] = dose: 100.0 mg/kg/injection, schedule: Q01DX009 (ip), vehicle: saline with Tween-80

Measured: T/C

CCN1/C(=C/C=C/c2oc3ccccc3[n+]2CC)Oc2ccccc21
inactive: dose: 0.13 mg/kg/injection, schedule: Q01DX010 (ip), vehicle: saline 118 % of control | dose: 0.15 mg/kg/injection, schedule: Q01DX009 (ip), vehicle: saline 108 % of control | dose: 0.25 mg/kg/injection, schedule: Q01DX010 (ip), vehicle: saline 118 % of control | dose: 37.5 micrograms/kg/injection, schedule: Q01DX009 (ip), vehicle: Klucel (hydroxypropylcellulose) (HPC) 108 % of control | dose: 75.0 micrograms/kg/injection, schedule: Q01DX009 (ip), vehicle: Klucel (hydroxypropylcellulose) (HPC) 104 % of control | dose: 150.0 micrograms/kg/injection, schedule: Q01DX009 (ip), vehicle: Klucel (hydroxypropylcellulose) (HPC) 116 % of control
active: dose: 0.6 mg/kg/injection, schedule: Q01DX009 (ip), vehicle: Klucel (hydroxypropylcellulose) (HPC) 165 % of control

CN(C)C=Nc1cc(Cl)c(Cl)cc1Cl
inactive: [1] 100 % of control | dose: 100.0 mg/kg/injection, schedule: Q01DX009 (ip), vehicle: saline 110 % of control | dose: 200.0 mg/kg/injection, schedule: Q01DX009 (ip), vehicle: saline 111 % of control

O=C(O)CCCCOc1ccc(N(CCCl)CCCl)cc1
active: dose: 50.0 mg/kg/injection, schedule: Q01DX001 (ip), vehicle: Klucel (hydroxypropylcellulose) (HPC) 174 % of control | dose: 100.0 mg/kg/injection, schedule: Q01DX001 (ip), vehicle: Klucel (hydroxypropylcellulose) (HPC) 177 % of control | dose: 200.0 mg/kg/injection, schedule: Q01DX001 (ip), vehicle: Klucel (hydroxypropylcellulose) (HPC) 155 % of control

Nc1ccccc1-c1ccc([N+](=O)[O-])cc1
inactive: dose: 100.0 mg/kg/injection, schedule: Q01DX001 (ip), vehicle: saline with Tween-80 95 % of control | dose: 200.0 mg/kg/injection, schedule: Q01DX001 (ip), vehicle: saline with Tween-80 100 % of control | dose: 400.0 mg/kg/injection, schedule: Q01DX001 (ip), vehicle: saline with Tween-80 91 % of control

CCCCC/C=C/c1c(C)[nH]c2ccccc2c1=O
inactive: [2] 95 % of control | [3] 95 % of control | [4] 113 % of control

COc1ccc(C(=O)/C=N/O)cc1
inactive: [5] 86 % of control | dose: 50.0 mg/kg/injection, schedule: Q01DX009 (ip), vehicle: saline with Tween-80 100 % of control | [6] 90 % of control

O=C(OC(c1ccccc1)c1ccccc1)C(CSC(c1ccccc1)(c1ccccc1)c1ccccc1)NC(c1ccccc1)(c1ccccc1)c1ccccc1 (stereo not drawn)
inactive: [2] 100 % of control | [3] 109 % of control | [4] 104 % of control

N=Cc1c(O)n(-c2ccccc2)c(=O)n(-c2ccccc2)c1=O
inactive: [6] 95 % of control | dose: 200.0 mg/kg/injection, schedule: Q01DX009 (ip), vehicle: saline with Tween-80 95 % of control | dose: 400.0 mg/kg/injection, schedule: Q01DX009 (ip), vehicle: saline with Tween-80 90 % of control

CC(C)(C)N1CCOCC1
inactive: dose: 12.5 mg/kg/injection, schedule: Q04DX003 (ip), vehicle: saline 109 % of control | dose: 25.0 mg/kg/injection, schedule: Q01DX009 (ip), vehicle: saline 95 % of control | dose: 25.0 mg/kg/injection, schedule: Q04DX003 (ip), vehicle: saline 95 % of control | [1] 86 % of control | dose: 50.0 mg/kg/injection, schedule: Q04DX003 (ip), vehicle: saline 90 % of control | dose: 75.0 mg/kg/injection, schedule: Q04DX003 (ip), vehicle: saline 105 % of control | dose: 115.0 mg/kg/injection, schedule: Q04DX003 (ip), vehicle: saline 120 % of control

[CH3][Hg][O]C(C)=O
inactive: dose: 3.12 mg/kg/injection, schedule: Q01DX009 (ip), vehicle: Klucel (hydroxypropylcellulose) (HPC) 107 % of control | dose: 6.25 mg/kg/injection, schedule: Q01DX009 (ip), vehicle: Klucel (hydroxypropylcellulose) (HPC) 113 % of control

CSc1nc(SC)c2[nH]cnc2n1
inactive: dose: 3.13 mg/kg/injection, schedule: Q01DX009 (ip), vehicle: saline with Tween-80 87 % of control | dose: 6.25 mg/kg/injection, schedule: Q01DX009 (ip), vehicle: saline with Tween-80 99 % of control | dose: 12.5 mg/kg/injection, schedule: Q01DX009 (ip), vehicle: saline with Tween-80 91 % of control | [5] 94 % of control

COc1ccc2c(c1)N=C1CCCC3CCCCC123 (stereo not drawn)
inactive: dose: 100.0 mg/kg/injection, schedule: Q04DX003 (ip), vehicle: saline with Tween-80 99 % of control | dose: 200.0 mg/kg/injection, schedule: Q04DX003 (ip), vehicle: saline with Tween-80 114 % of control
